In patent US4855290A (priority 1985, dated 1989):
Where “and” joins values, the source holds several entries; their conditions need not be identical. Identical values can stand only once. Entries after “also recorded” stand apart in the source; their conditions may differ. Like-named read-outs stand apart in the source and are kept apart here.

Key:
[1] = system: Guinea-pig ileum; test: Guinea-pig ileum induced contractions
Description: Guinea-pig ileum induced contractions
*This dose is the IC50 for inhibiting acetylcholineinduced
contractions of the ileum.

[2] = Tremor induced by AF102B, mice; format: in vivo; conditions: ip
Description: (§1) rats; these effects are observed around the toxic doses of the compound

[3] = mice
[4] = format: in vivo, mice; conditions: for dose level for antinociceptive activity: mouse, in vivo
[5] = Tremor induced by AF102B, rats; format: in vivo
Description: as §1

[6] = in vivo; conditions: mouse, po
[7] = target: central muscarinic receptors (M1) (Rattus norvegicus, UniProt P08482); test: biochemical; format: binding; design: IC50^1 :IC50^2: unit not given beside the values
Sequence of central muscarinic receptors (M1) (P08482 whole entry): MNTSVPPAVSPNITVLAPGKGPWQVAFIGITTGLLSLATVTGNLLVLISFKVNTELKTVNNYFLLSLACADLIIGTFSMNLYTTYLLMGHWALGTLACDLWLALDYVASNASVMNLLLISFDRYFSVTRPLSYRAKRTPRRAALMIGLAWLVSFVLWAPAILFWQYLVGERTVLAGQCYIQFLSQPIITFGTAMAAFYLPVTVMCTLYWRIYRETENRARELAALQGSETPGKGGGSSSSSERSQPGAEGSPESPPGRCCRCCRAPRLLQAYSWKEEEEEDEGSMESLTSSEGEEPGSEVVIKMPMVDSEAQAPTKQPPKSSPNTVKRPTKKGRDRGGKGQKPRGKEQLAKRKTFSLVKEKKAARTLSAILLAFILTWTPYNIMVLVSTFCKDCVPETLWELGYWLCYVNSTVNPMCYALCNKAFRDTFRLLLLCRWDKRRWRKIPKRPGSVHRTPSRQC

[8] = rats, ip
[9] = system: Guinea-pig ileum; test: Guinea-pig ileum induced contractions; conditions: ileum contraction
[10] = in vivo; conditions: mouse, iv
[11] = Acute oral toxicity of AF102B in rats; format: in vivo, rats (Charles River CD strain)
Procedure: The test material was prepared at various concentrations in saline and was administered at a constant volume-sosage of 5 ml./kg. Dosages were selected according to the availability of the test material. Mortality and signs of reaction to treatment were recorded during a 14-day period. Early decedents and surviving animals were subjected to necropsy on Day 15.

[12] = design: species or system Male Sprague-Dawley rats; conditions: rat, in vivo
[13] = design: species or system Sprague Dawley rats; conditions: rat, in vivo, ip
[14] = target: central muscarinic receptors (M1 and M2); format: binding, rat
[15] = Hypothermia-inducing activity in rats
[16] = Acute toxicity in mice, ip; format: in vivo; conditions: 80 mg./kg.
[17] = Morris Swimming Maze in AF64A- and CSF-injected rats; format: in vivo, male Sprague Dawley rats; conditions: ip
Procedure: 38 male Sprague Dawley rats (raised by Charles River) 5-6 months old with an average weight of 500 g. were used. The rats were housed in groups of 5 and were given free access to food and water. Testing was carried out in a round white metal tub 1.4 m. diameter and 0.4 m. deep. The tub was filled with water, made opaque by milk powder to the level of 18 cm. A platform of 12 cm. diameter and at a height of 16 cm. was placed in the tub 2 cm. below water level. The platform was covered with gauze to prevent the animal from slipping back into the water after reaching the platform.
Prior to testing, the rat was placed on the platform for 120 secs., placed gently into the water, facing the wall of the pool, at one of four starting locations (north, south, east or west) around the pool's perimeter. Within each block of four trials, each rat was started at each of the four starting locations, with the sequence of starting locations randomly selected. Testing was carried out on 2 consecutive days with each rat submitted daily to eight trials. During trials 1-12 the platform was located in the center of the south-east quadrant and during trials 13-16 the platform was transferred to the center of the north-west quadrant. If in a particular trial the rat found the platform, it was permitted to remain on it for 60 secs. before starting the next trial. […] The latency to find the platform was measured.
For drug testing, rats were injected with AF64A or CSF (3 nmole/2 ul/side) as described in Experiment 2, above. The rats were subjected first to a step-through learning procedure (see Experiment 1, above) and were 3-3.5 months after injection when tested in the water maze. The rats were divided into 4 groups; 18 CSF-injected rats were treated either with physostigmine (0.1 mg./kg. ip) (10 rats) or with saline (8 rats). 20 AF64A-injected rats were divided similarly. The rats were injected with physostigmine immediately before testing on each day.
Forty male Sprague-Dawley rats (obtained from Charles River Breeding Laboratories U.K.), 5-6 months old, weighing 450-580 g. during the experiment served as subjects. Rats were housed in groups of 5 and were given free access to food and water. 2.5-3.5 months before behavioral testing, rats were injected with AF64A (3 nmole/2 ul/side) (20 rats-group 1) or CSF (20 rats-group 2) as described in the surgery procedure.
Each of the injected groups was randomly subdivided into two equal size treatment groups.

[18] = system: Salmonella typhimurium, strains TA-15365, TA-100, TA1538, TA-98 and TA-1537; test: Mutagenic activity (pour-plate assays)
[19] = in vivo; conditions: rat, ip
[20] = system: acetyl- and butyryl-cholinesterase; test: Resistance to cholinesterases; format: in vitro ADME
[21] = oxotremorine 0.5 mg./kg., ip; cited from earlier work
[22] = mouse, icv; cited from earlier work
[23] = oxotremorine 0.5 mg./kg., ip; cited from earlier work; remark: listed apart in the source

**Q.** What does the source list for C[C@H]1O[C@]2(CS1)CN1CCC2CC1 (relative stereo) [AF102B]?
**A.** muscarinic agonist activity (TABLES 1 and 2) ([1]; binding and ileum): potent muscarinic agonist; Type of activity ([1]; guinea-pig ileum): agonist; tremor-inducing dose [2]: 60 to 80 mg/kg; Mortality ([3]; 31 mg./kg. i.v.): 3/6; Mortality ([3]; 33 mg./kg. i.v.): 1/6; Mortality ([3]; 35 mg./kg. i.v.): 5/6; Mortality ([3]; 37 mg./kg. i.v.): 6/6; Mortality ([3]; 39 mg./kg. i.v.): 6/6; LD50 (95% C.I.) ([3]; intravenous): 33(31-35) mg./kg.; antinociceptive effect at highest non-lethal doses ([4]; mice, 60 mg./kg. p.o. and 40 mg./kg. i.p., vs codeine phosphate and oxotremorine): not fully developed at 60 mg./kg. p.o. and 40 mg./kg. i.p; also recorded: remained obviously weaker than those of codeine phosphate and oxotremorine; dose level for antinociceptive activity ([4]; ip): > 10 mg/kg; dose level for antinociceptive activity ([4]; po): greater than 20 mg./kg.; onset of action following per os administration ([4]; po, analgesia, hypothermia and lethal dose level tests): 10 to 15 min; tremor-inducing dose ([5]; ip): > 78 mg/kg; tremor-inducing dose ([5]; po): > 100 mg/kg; LD50 [6]: 92 mg/kg; EC50 [7]: 0.4 µM; IC50 [7]: 0.4 µM; IC50^1 :IC50^2 ([7]; PNZ:QNB displacement ratio): 0.04; principal signs of reaction to treatment [8]: spastic and tonic convulsions, tremors, tachypnoea and dyspnoea, decreased motor activity, slight to very strong salivation and urination; deaths ([8]; 20.0-187.0 mg./kg.): deaths occurred at the three highest dose levels (61, 107, 187 mg./kg.), within twenty minutes after dosing; slope ([8]; acute toxicity curve): 83 °; LD50 ([8]; 20160 min): 78 mg/kg; EC50 [9]: 4 µM; LD50 [10]: 33 mg/kg; deaths ([11]; oral): deaths occurred at all four dose-levels studied, within three hours 30 minutes after dosing; necropsy observations ([11]; oral): a single case of haemorrhagic contents and occasional congested gastric mucosa was observed; also recorded: Necropsy of surviving animals did not reveal any abnormalities; principal signs of reaction to treatment ([11]; oral): clonic convulsions, tremor, salivation, urogenital staining, diarrhoea and pigmented orbital secretion; recovery and bodyweight of surviving animals ([11]; oral): all clinical signs of reaction to treatment were resolved by twenty four hours after dosing; also recorded: Surviving animals generally made expected bodyweight gains; LD50 at 336 h ([11]; rat, in vivo, po): > 156 mg/kg; duration of action [12]: very long beneficial effect; also recorded: long duration of action; retention latency during extinction+latent extinction [12]: No significant differences; reversal of AF64A-induced memory impairments in passive avoidance [12]: could be reversed; also recorded: reverses memory impairments in AF64A-treated rats; Initial latency ([12]; ip): 16.71 ± 4.77 s and 11.86 ± 1.23 s and 19.71 ± 5.39 s; Initial-test latency ([12]; ip): 18.40 ± 3.74 s and 15.30 ± 2.83 s; Retention-test latency ([12]; ip): 330.57 ± 75.55 s and 348.14 s and 551.71 s and 514.10 ± 38.21 s and 447.60 ± 58.09 s; retention latency during extinction ([12]; ip): significantly longer, F(1,36)=31.45, p<0.01; also recorded: significantly improved; also recorded: increased from the first to the fourth trial and then decreased; retention-test differences between doses ([12]; ip): no significant differences were found during the 24 hr. retention-test between the different doses of AF102B; Retention-test latency ([12]; po): 524.55 ± 45.60 s and 600 s; retention of passive avoidance (statistics) ([12]; po): significantly longer [F(1,35)=28.46; p<0.001]; also recorded: significantly improved; also recorded: no significant difference between the AF102B-treated-CSF-injected group and the saline-treated-CSF-injected group; also recorded: significantly longer [F(1,18)=65.71; p<0.001]; also recorded: that of the CSF-injected group did not significantly change; effect in 8-Arm Radial Maze [13]: counteracted; also recorded: reverses memory impairments in AF64A-treated rats; also recorded: improves AF64A-induced memory impairments; also recorded: significant (p<0.001, F=17.5) decrease in the mean number of errors; also recorded: improved performance only when rats were previously injected icv with AF64A; also recorded: memory impairment could be reversed; effective dose, 8-Arm Radial Maze [13]: 5 mg/kg; Mortality (mice, 64 mg./kg. per os): 0/5; Mortality (mice, 71 mg./kg. per os): 0/5; Mortality (mice, 80 mg./kg. per os): 2/5; Mortality (mice, 90 mg./kg. per os): 2/5; Mortality (mice, 101 mg./kg. per os): 3/5; Mortality (mice, 113 mg./kg. per os): 4/5; absorption by the enteric route (mice, inferred from i.v./oral LD50 ratio): efficient, rapid and apparently unaltered absorption; LD50 (95% C.I.) (mice, oral): 92(74-116) mg./kg.; Signs in reaction to treatment (mouse, in vivo): slightly enhanced intensity; effects considered characteristic of parasympatho- or cholinomimetic activity (mouse, in vivo): none of the test animals exhibited effects considered characteristic of parasympatho- or cholinomimetic activity; IC50 ([14]; read-out: IC50^2 for displacement of [^3 H]-QNB): 10 µM; EC50 ([14]; summary table, read-out: EC50, [^3 H]--QNB-binding): 10 µM; cholinomimetic manifestation ([15]; AF102B at 80 mg./kg. p.o. and 60 mg./kg. i.p., oxotremorine 3.2 mg./kg. p.o. or 1.2 mg./kg. i.p.): Slight diarrhea was the single cholinomimetic manifestation; dose level for hypothermia inducing activity ([15]; i.p.): > 15 mg/kg; dose level for hypothermia inducing activity ([15]; p.o.): greater than 40 mg./kg.; death of mice [16]: All mice died; effect in Morris Swimming Maze ([17]; AF102B 1 mg./kg., physostigmine 0.1 mg./kg.): counteracted; also recorded: reverses memory impairments in AF64A-treated rats; also recorded: definitely improved the memory deficits induced by AF64A; also recorded: significant decrease in escape latency; effective dose, Morris Swimming Maze ([17]; AF64A rats): 1 mg/kg; inhibition of growth ([18]; 1000 ug. per plate): No inhibition of growth; mutagenic activity (reversion to prototrophy) ([18]; five strains, presence or absence of S-9 mix): No increases in reversion to prototrophy; also recorded: devoid of mutagenic activity; also recorded: not mutagenic up to high concentrations; LD50 at 336 h ([19]; LD50 (95% C.L.), rats): 77.6 mg/kg; LD50 at 336 h ([19]; LD50, rats): 77.6 mg/kg

**Q.** Which “pharmacological activity (muscarinic)” value [7] does the source give for CC1OC2(CS1)CN1CCC2CC1 (stereo not drawn) [(Ia), 2-methylspiro(1,3-oxathiolan-5,3')quinuclidine] here?
**A.** The value was “muscarinic agonist with a high specificity for the central nervous system”.

**Q.** And the “destruction by acetyl- and butyryl-cholinesterase” value [20]?
**A.** The value was “not destroyed”.

**Q.** Which “dose required to reduce the effect of oxotremorine by 50%, antinociception” value [21] does the source give for CN1CCN(CC(=O)N2c3ccccc3C(=O)Nc3cccnc32)CC1 [PNZ, pirenzepine] here?
**A.** The value was 4.6 ug/mouse, icv.

**Q.** What about the “minimum effective dose producing impaired passive avoidance learning” value [22] of the same compound?
**A.** Its value is 0.1 ug/mouse, icv.

**Q.** And the “dose required to reduce the effect of oxotremorine by 50%, tremor” value [23]?
**A.** Its value is 5.8 ug/mouse, icv.
